Results reported in patent publication US9707417B2, “Use of benzotropolone derivatives as UV absorbers and antioxidants and their use in sunscreens and/or cosmetic compositions” (BASF SE, priority 2008, dated 2017).
Entries after “also recorded” stand apart in the source; their conditions may differ.

Assays:
[1] = UV shielding properties (UV spectra in ethanol); type: physicochemical; set-up: Absorption maximum 1 λmax / Absorption maximum 2 λmax: unit not given here; conditions: for Absorption maximum 1 A^1%1 cm / Absorption maximum 1 λmax / Absorption maximum 2 A^1%1 cm / Absorption maximum 2 λmax: UV spectra in ethanol
Text: The UV shielding properties of the benzotropolone derivatives were investigated by measuring their UV spectra in ethanol.
In the following table the investigated absorption maxima (λmax) together with the corresponding A^1%1cm values are listed.

[2] = Measurement of photostability (irradiation of highly diluted solution of the UV-filter, analysis by UV-spectroscopy); type: physicochemical; conditions: for Half time: photostability, diluted solution in ethanol, first order kinetic model, half-life under conditions of COLIPA standard sun irradiation
Method: The method used for assessment of photostability is based on the irradiation of a highly diluted solution of the UV-filter.
The analysis after certain doses of irradiation is performed by UV-spectroscopy. The concentration of the UV-absorber in ethanol is adjusted to values between 1·10^−5 and 1·10^−6 mol/l, such that the absorbance of the solution in cuvette of 1 cm optical path length is ≦than 0.2. The mutual protection of filter molecules can be excluded under such conditions.
Prior to irradiation of a sample the UVB-intensity at the sample position is measured with a UV-radiometer (RM-12, Dr. Gröbel Electronic GmbH).
This radiometer is calibrated by comparison with a measurement of the spectral output of the metal halide lamp (including light guide and cut-off filter) using a wavelength-resolved radiometer (Gamma C11).
Therefore the relationship of the reading of the RM-12 radiometer and the corresponding spectral output of the lamp is known, and one is able to determine the wavelength-resolved intensities by measuring the UVB-intensity. By changing the distance between the end of the light guide and the cuvette, the UVB-intensity can be varied in the range of 100 μW/cm^2 and 4500 μW/cm^2.
For sample irradiation the highest possible intensity was used (4.5 mW/cm^2 UVB-intensity measured with the Macam 103 radiometer).
The irradiation time is varied from 0 to 180 min.
The dose the sample has received after 180 min corresponds to 60 MED.
During irradiation the sample was stirred. After certain intervals of irradiation, the samples were analyzed in a UV-spectrometer (Perkin Elmer, Lambda 16).
From the absorbance values at each dose of irradiation the concentration may be calculated using Lambert-Beer's law.
In order to get the half-life of the substance, a first order kinetic model was fitted to the experimental data. Since the UV-spectrum of the lamp and the UV-spectrum of the COLIPA standard sun are known, one can calculate the respective half-life of the UV-absorber under conditions of COLIPA standard sun irradiation [Bernd Herzog, Stefan Müller, Myriam Sohn, Uli Osterwalder, “New Insight and Prediction of Photostability of Sunscreens”, SÖFW Journal 133, 26-36 (2007)].

SMILES | Absorption maximum 1 A^1%1 cm [1] | Absorption maximum 1 λmax [1] | Absorption maximum 2 A^1%1 cm [1] | Absorption maximum 2 λmax [1] | photostability (in words) [2] | Half time [2] [h] | shielding properties in the UV region (in words) [1]
Cc1cc2cc(C(=O)NCCCCP(=O)(O)O)cc(O)c(=O)c2c(O)c1O [Compound B-49] | 601 | 278 | 270 | 381 |  |  | 
O=C(O)CCCCCOc1cc2cc(C(=O)O)cc(O)c(=O)c2c(O)c1O [Compound B-19] | 726 | 308 | 236 | 397 | high photostability | 40.1 | 
O=C(O)c1cc(O)c(=O)c2c(O)c(O)ccc2c1 [Compound B-2] | 966 | 276 | 460 | 400 | high photostability | 33.6 | high shielding properties in the UV region; also recorded: UV-C/UV-B shielding properties as well as UV-A shielding properties
COC(=O)c1cc(O)c(=O)c2c(O)c(O)c(O[C@@H]3O[C@H](CO)[C@@H](O)[C@H](O)[C@H]3O)cc2c1 [Compound B-7] | 593 | 287 | 246 | 399 |  |  | 
O=c1c(O)cccc2cc(O)c(O)c(O)c12 [Compound B-1] | 935 | 281 | 1179 | 305 | high photostability | 31.5 | high shielding properties in the UV region; also recorded: high absorption in the UV-C and UV-B region
COC(=O)c1cc(O)c(=O)c2c(O)c(O)c(OC)cc2c1 [Compound B-5] | 1008 | 308 | 399 | 403 | extraordinary high inherent photostability | 116.5 | high shielding properties in the UV region; also recorded: UV-C/UV-B shielding properties as well as UV-A shielding properties
COC(=O)c1cc(O)c(=O)c2c(O)c(O)c(O[C@@H]3O[C@H](CO)[C@H](O)[C@H](O)[C@H]3O)cc2c1 [Compound B-16] | 550 | 288 | 204 | 397 |  |  | 
CCCCCCCCCCCCOc1cc2cc(C(=O)OCCCCCCCC)cc(O)c(=O)c2c(O)c1O [Compound B-33] | 575 | 310 | 210 | 403 |  |  | 
COC(=O)c1cc(O)c(=O)c2c(O)c(O)c(C)cc2c1 [Compound B-6] | 997 | 280 | 447 | 396 |  |  | high shielding properties in the UV region; also recorded: UV-C/UV-B shielding properties as well as UV-A shielding properties
COC(=O)c1cc(O)c(=O)c2c(O)c(O)ccc2c1 [Compound B-3] | 1007 | 277 | 516 | 395 | extraordinary high inherent photostability | 61.9 | high shielding properties in the UV region; also recorded: UV-C/UV-B shielding properties as well as UV-A shielding properties
Cc1cc2cc(C(=O)O)cc(O)c(=O)c2c(O)c1O [Compound B-31] | 1065 | 281 | 477 | 393 |  |  | 
COC(=O)c1cc(O)c(=O)c2c(O)c(O)c(OCCCCCC(=O)O)cc2c1 [Compound B-15] | 754 | 310 | 269 | 398 |  |  | 

More lines, main results first:

Absorption maximum 1 A^1%1 cm [1] | Absorption maximum 1 λmax [1] | Absorption maximum 2 A^1%1 cm [1] | Absorption maximum 2 λmax [1] | photostability (in words) [2] | Half time [2] [h] | SMILES | shielding properties in the UV region (in words) [1]
533 | 309 | 193 | 402 |  |  | CCCCCCCCCCCCOC(=O)c1cc(O)c(=O)c2c(O)c(O)c(OCCCCCCCCCCCC)cc2c1 [Compound B-53] | 
611 | 310 | 231 | 404 |  |  | CCCCCCCCCCCCOc1cc2cc(C(=O)OC)cc(O)c(=O)c2c(O)c1O [Compound B-35] | 
748 | 282 | 333 | 398 |  |  | CCCCCCCCOC(=O)c1cc(O)c(=O)c2c(O)c(O)c(C)cc2c1 [Compound B-34] | 
711 | 295 |  |  |  |  | Cc1cc2cc(CO)cc(O)c(=O)c2c(O)c1O [Compound B-61] | 
788 | 311 |  |  |  |  | CCCCc1ccc2c(CCCC)c(O)c(O)c(O)c2c(=O)c1O [Compound B-55] | 
799 | 281 | 383 | 406 |  |  | COC(=O)c1cc(O)c(=O)c2c(O)c(O)cc(CCC(=O)O)c2c1 [Compound B-62] | 
497 | 300 | 174 | 388 |  |  | O=C(O)c1cc(O)c(=O)c2c(O)c(O)c(O[C@@H]3O[C@H](CO)[C@@H](O)[C@H](O)[C@H]3O)cc2c1 [Compound B-59] | 
394 | 285 | 88 | 393 |  |  | COC(=O)c1cc(O)c(=O)c2c(O)c(O)c(O[C@@H]3O[C@H](COC(C)=O)[C@H](OC(C)=O)[C@H](OC(C)=O)[C@H]3OC(C)=O)cc2c1 [Compound B-37] | 
437 | 280 | 176 | 399 |  |  | COC(=O)c1cc(O)c(=O)c2c(O)c(O)cc(CCO)c2c1 [Compound B-52] | 
750 | 309 | 250 | 398 | high photostability | 22.8 | CCOC(=O)CCCCCOc1cc2cc(C(=O)O)cc(O)c(=O)c2c(O)c1O [Compound B-36] | 
804 | 306 | 302 | 401 |  |  | COC(=O)c1cc(O)c(=O)c2c(OC)c(O)c(OCCO)cc2c1 [Compound B-45] | 
1142 | 309 |  |  |  |  | CCc1ccc2c(CC)c(O)c(O)c(O)c2c(=O)c1O [Compound B-54] | 
1027 | 305 |  |  |  |  | COc1cc2cc(CO)cc(O)c(=O)c2c(O)c1O [Compound B-50] | 
